Measurements taken from PubChem BioAssay AID248 (DTP/NCI, 2004).
Values joined by “and” are separate entries in the source; they are usually repeats but may differ in a detail not shown here. Identical values can stand only once. Toxic doses and inconclusive results are not listed. Rule as the data show it: active = T/C of 150% or more; inactive = T/C below 125%.

Test system: L1210 leukemia ip in BDF1 mice, survival T/C
Assay: NCI In Vivo Anticancer Drug Screen. Data for tumor model L1210 Leukemia (intraperitoneal) in B6D2F1 (BDF1) mice
Conditions: endpoint: mean survival time, higher = longer survival
Summary of the method: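 Tumor was transplanted into mice, which were then dosed with test compound or vehicle alone. Survival was recorded for each group, and the treated figure was expressed relative to the control figure.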

[1] = dose: 100.0 mg/kg/injection, schedule: Q01DX001 (ip), vehicle: saline
[2] = dose: 200.0 mg/kg/injection, schedule: Q01DX001 (ip), vehicle: saline
[3] = dose: 400.0 mg/kg/injection, schedule: Q01DX001 (ip), vehicle: saline
[4] = dose: 100.0 mg/kg/injection, schedule: Q01DX009 (ip), vehicle: saline with Tween-80
[5] = dose: 50.0 mg/kg/injection, schedule: Q01DX001 (ip), vehicle: carboxymethylcellulose (CMC)
[6] = dose: 50.0 mg/kg/injection, schedule: Q01DX001 (ip), vehicle: other
[7] = dose: 100.0 mg/kg/injection, schedule: Q01DX001 (ip), vehicle: carboxymethylcellulose (CMC)
[8] = dose: 100.0 mg/kg/injection, schedule: Q01DX001 (ip), vehicle: other
[9] = dose: 200.0 mg/kg/injection, schedule: Q01DX001 (ip), vehicle: other
[10] = dose: 400.0 mg/kg/injection, schedule: Q01DX001 (ip), vehicle: other
[11] = dose: 75.0 mg/kg/injection, schedule: Q01DX001 (ip), vehicle: other
[12] = dose: 150.0 mg/kg/injection, schedule: Q01DX001 (ip), vehicle: other
[13] = dose: 100.0 mg/kg/injection, schedule: Q01DX001 (ip), vehicle: Klucel (hydroxypropylcellulose) (HPC)
[14] = dose: 200.0 mg/kg/injection, schedule: Q01DX001 (ip), vehicle: Klucel (hydroxypropylcellulose) (HPC)
[15] = dose: 100.0 mg/kg/injection, schedule: Q04DX003 (ip), vehicle: Klucel (hydroxypropylcellulose) (HPC)
[16] = dose: 200.0 mg/kg/injection, schedule: Q04DX003 (ip), vehicle: Klucel (hydroxypropylcellulose) (HPC)
[17] = dose: 400.0 mg/kg/injection, schedule: Q04DX003 (ip), vehicle: Klucel (hydroxypropylcellulose) (HPC)

Measured: T/C

CC(=O)OC1=C(c2ccccc2)C(=O)c2ccccc21
inactive: dose: 40.0 mg/kg/injection, schedule: Q01DX009 (ip), vehicle: Klucel (hydroxypropylcellulose) (HPC) 94 % of control | dose: 75.0 mg/kg/injection, schedule: Q01DX001 (ip), vehicle: Klucel (hydroxypropylcellulose) (HPC) 95 % of control | dose: 75.0 mg/kg/injection, schedule: Q01DX009 (ip), vehicle: Klucel (hydroxypropylcellulose) (HPC) 94 % of control | dose: 150.0 mg/kg/injection, schedule: Q01DX001 (ip), vehicle: Klucel (hydroxypropylcellulose) (HPC) 96 % of control | dose: 150.0 mg/kg/injection, schedule: Q01DX009 (ip), vehicle: Klucel (hydroxypropylcellulose) (HPC) 88 % of control

CN1COc2c(n(C)c(=O)[nH]c2=O)C1
inactive: dose: 50.0 mg/kg/injection, schedule: Q01DX001 (ip), vehicle: saline 97 % of control | [1] 103 % of control | [2] 89 % of control | [3] 101 % of control

Cc1ccc(Cl)c([N+](=O)[O-])c1N
inactive: [4] 92 % of control | dose: 100.0 mg/kg/injection, schedule: Q04DX003 (ip), vehicle: saline with Tween-80 106 % of control | dose: 200.0 mg/kg/injection, schedule: Q01DX009 (ip), vehicle: saline with Tween-80 95 % of control | dose: 200.0 mg/kg/injection, schedule: Q04DX003 (ip), vehicle: saline with Tween-80 104 % of control | dose: 400.0 mg/kg/injection, schedule: Q01DX009 (ip), vehicle: saline with Tween-80 108 % of control | dose: 400.0 mg/kg/injection, schedule: Q04DX003 (ip), vehicle: saline with Tween-80 104 % of control

CSc1ncnc2c1ncn2N(CCCCN=C=S)C(C)=O
inactive: dose: 12.5 mg/kg/injection, schedule: Q01DX001 (ip), vehicle: saline with Tween-80 107 % of control | dose: 25.0 mg/kg/injection, schedule: Q01DX001 (ip), vehicle: saline with Tween-80 98 % of control | dose: 50.0 mg/kg/injection, schedule: Q01DX001 (ip), vehicle: saline with Tween-80 103 % of control

CC(C)C1(NC(=O)C2C=C3c4cccc5[nH]cc(c45)CC3N(C)C2)OC2(O)C3CCCN3C(=O)C(Cc3ccccc3)N2C1=O (stereo unspecified)
inactive: [5] 93 % of control | [6] 93 % of control | [7] 98 % of control | [8] 88 % of control | [1] 102 % of control | [9] 93 % of control | [2] 96 % of control and 89 % of control | [10] 96 % of control

CCCCNN
inactive: [11] 96 % of control | [12] 113 % of control

CCCNC(=S)Nc1ccccc1
inactive: [11] 101 % of control | [12] 107 % of control

O=Nc1ccc(O)c(Cl)c1
inactive: [13] 95 % of control | [14] 98 % of control

COc1ccc(S(=O)(=O)NCCC#N)cc1NC(C)=O
inactive: [13] 95 % of control | dose: 100.0 mg/kg/injection, schedule: Q01DX009 (ip), vehicle: saline sonified 96 % of control | [14] 97 % of control | dose: 200.0 mg/kg/injection, schedule: Q01DX009 (ip), vehicle: saline sonified 96 % of control | dose: 400.0 mg/kg/injection, schedule: Q01DX001 (ip), vehicle: Klucel (hydroxypropylcellulose) (HPC) 97 % of control | dose: 400.0 mg/kg/injection, schedule: Q01DX009 (ip), vehicle: saline sonified 107 % of control

CCOc1ccc(N)c(O)c1
inactive: dose: 75.0 mg/kg/injection, schedule: Q01DX001 (ip), vehicle: carboxymethylcellulose (CMC) 98 % of control and 102 % of control | dose: 150.0 mg/kg/injection, schedule: Q01DX001 (ip), vehicle: carboxymethylcellulose (CMC) 93 % of control

CCN(C(=O)C(F)(F)F)C(C)(C)C(SSSC(c1ccc(Cl)cc1)C(C)(C)N(CC)C(=O)C(F)(F)F)c1ccc(Cl)cc1 (stereo unspecified)
inactive: dose: 100.0 mg/kg/injection, schedule: Q01DX009 (ip), vehicle: other 94 % of control

COc1ccccc1-n1c(=O)c(N=Nc2ccc(Cl)cc2)c(O)n(-c2ccccc2Cl)c1=S
inactive: dose: 50.0 mg/kg/injection, schedule: Q01DX001 (ip), vehicle: Klucel (hydroxypropylcellulose) (HPC) 94 % of control | [13] 101 % of control | [14] 92 % of control

NC(=S)Nc1ccccc1Cl
inactive: [1] 103 % of control | [2] 101 % of control

O=C(O)CC(C(=O)O)/C(=C\c1ccccc1)c1ccccc1 (stereo unspecified)
inactive: dose: 100.0 mg/kg/injection, schedule: Q04DX002 (ip), vehicle: saline 94 % of control | dose: 200.0 mg/kg/injection, schedule: Q04DX002 (ip), vehicle: saline 113 % of control | dose: 400.0 mg/kg/injection, schedule: Q04DX002 (ip), vehicle: saline 110 % of control

Oc1c(Br)cc(Br)cc1/C=N/N1CCN(/N=C/c2cc(Br)cc(Br)c2O)CC1
inactive: [1] 87 % of control | [3] 90 % of control

Cc1c([N+](=O)[O-])cc(C(C)(C)C)c(OC(=O)C(C)(C)C)c1[N+](=O)[O-]
inactive: dose: 25.0 mg/kg/injection, schedule: Q04DX002 (ip), vehicle: Klucel (hydroxypropylcellulose) (HPC) 95 % of control | dose: 50.0 mg/kg/injection, schedule: Q04DX002 (ip), vehicle: Klucel (hydroxypropylcellulose) (HPC) 100 % of control | dose: 100.0 mg/kg/injection, schedule: Q04DX002 (ip), vehicle: Klucel (hydroxypropylcellulose) (HPC) 92 % of control

COc1ccccc1C1OCC(C)(C)CO1
inactive: dose: 100.0 mg/kg/injection, schedule: Q01DX009 (ip), vehicle: Klucel (hydroxypropylcellulose) (HPC) 90 % of control | [15] 109 % of control | dose: 200.0 mg/kg/injection, schedule: Q01DX009 (ip), vehicle: Klucel (hydroxypropylcellulose) (HPC) 95 % of control | [16] 103 % of control | dose: 400.0 mg/kg/injection, schedule: Q01DX009 (ip), vehicle: Klucel (hydroxypropylcellulose) (HPC) 92 % of control | [17] 108 % of control

CCCCOC(=S)SSC(=S)OCCCC
inactive: dose: 25.0 mg/kg/injection, schedule: Q01DX009 (ip), vehicle: saline with Tween-80 97 % of control | dose: 50.0 mg/kg/injection, schedule: Q01DX009 (ip), vehicle: saline with Tween-80 93 % of control | [4] 103 % of control and 104 % of control

CC1CC=C(C(=O)O)CC1 (stereo unspecified)
inactive: [6] 90 % of control | [8] 95 % of control | [9] 93 % of control | [10] 95 % of control

Nc1cc(Nc2ccc(S(N)(=O)=O)cc2)nc(N)n1
inactive: [15] 93 % of control | [16] 97 % of control | [17] 93 % of control

CN(C)c1ccc(N=C2C(c3ccccc3)=CC(c3ccccc3)=C2c2ccccc2)cc1
inactive: [5] 89 % of control | [7] 91 % of control | dose: 200.0 mg/kg/injection, schedule: Q01DX001 (ip), vehicle: carboxymethylcellulose (CMC) 94 % of control | dose: 400.0 mg/kg/injection, schedule: Q01DX001 (ip), vehicle: carboxymethylcellulose (CMC) 97 % of control

O=C(C[n+]1ccccc1)N/N=C/c1ccc([N+](=O)[O-])s1
inactive: dose: 12.5 mg/kg/injection, schedule: Q01DX009 (ip), vehicle: water 96 % of control | dose: 25.0 mg/kg/injection, schedule: Q01DX009 (ip), vehicle: water 101 % of control
